Measurements from patent publication US20230085307A1, “PYRIDAZINONE COMPOUND AND HERBICIDE” (NISSAN CHEMICAL CORPORATION, priority 2019, published 2023).

Experiments:
[1] = system: windgrass; assay: Test Example 5: herbicidal effect by foliage application, plastic box (Table 20, symbol L); type: in vivo, windgrass (Apera spica-venti); settings: amount of applied herbicide 320 g/ha; foliage application after 14-day growth; evaluated three weeks after application
Outline: (§1)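 Post-emergence foliar test in sterilized diluvial soil. Compound applied as water-diluted emulsion at a predetermined rate to 14-day-old plants; evaluation at three weeks.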

[2] = system: velvetleaf; assay: Test Example 5: herbicidal effect by foliage application, plastic box (Table 20, symbol M); type: in vivo, velvetleaf (Abutilon theophrasti); settings: amount of applied herbicide 320 g/ha; foliage application after 14-day growth; evaluated three weeks after application
Outline: as §1

[3] = system: southern crabgrass; assay: Test Example 5: herbicidal effect by foliage application, plastic box (Table 20, symbol F); type: in vivo, southern crabgrass (Digitaria ciliaris); settings: amount of applied herbicide 320 g/ha; foliage application after 14-day growth; evaluated three weeks after application
Outline: as §1

[4] = system: chickweed; assay: Test Example 4: herbicidal effect by soil treatment (Table 19, symbol P); type: in vivo, common chickweed (Stellaria media); settings: amount of applied herbicide 320 g/ha
Outline: (§2)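 Scoring uses the grading scale of an earlier test, three weeks post-application. Treatment consists of spraying a diluted emulsion formulation across the surface of sterilized diluvial soil in which seeds are buried near 1.5 cm deep; boxes are kept in a greenhouse between 25° C. and 30° C.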

[5] = system: chickweed; assay: Test Example 5: herbicidal effect by foliage application, plastic box (Table 20, symbol P); type: in vivo, common chickweed (Stellaria media); settings: amount of applied herbicide 320 g/ha; foliage application after 14-day growth; evaluated three weeks after application
Outline: as §1

[6] = system: barnyard grass; assay: Test Example 3: herbicidal effect by foliage application, Wagner pot (Table 18, symbol H); type: in vivo, barnyard grass (Echinochloa crus-galli); settings: 320 g/ha
Outline: (§3)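 Plants were sown in alluvial soil held under 0.1–0.5 cm standing water and grown 14 days in a greenhouse at 25–30 °C. An emulsifiable formulation, water-diluted to the set dose, was then sprayed onto the foliage, and effects were scored three weeks later using previously defined criteria.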

[7] = system: Italian ryegrass; assay: Test Example 4: herbicidal effect by soil treatment (Table 19, symbol K); type: in vivo, Italian ryegrass (Lolium multiflorum); settings: amount of applied herbicide 320 g/ha
Outline: as §2

[8] = system: windgrass; assay: Test Example 4: herbicidal effect by soil treatment (Table 19, symbol L); type: in vivo, windgrass (Apera spica-venti); settings: amount of applied herbicide 320 g/ha
Outline: as §2

[9] = system: barnyard grass; assay: Test Example 4: herbicidal effect by soil treatment (Table 19, symbol H); type: in vivo, barnyard grass (Echinochloa crus-galli); settings: amount of applied herbicide 320 g/ha
Outline: as §2

[10] = system: lambsquarters; assay: Test Example 5: herbicidal effect by foliage application, plastic box (Table 20, symbol O); type: in vivo, lambsquarters (Chenopodium album); settings: amount of applied herbicide 320 g/ha; foliage application after 14-day growth; evaluated three weeks after application
Outline: as §1

[11] = system: Italian ryegrass; assay: Test Example 5: herbicidal effect by foliage application, plastic box (Table 20, symbol K); type: in vivo, Italian ryegrass (Lolium multiflorum); settings: amount of applied herbicide 320 g/ha; foliage application after 14-day growth; evaluated three weeks after application
Outline: as §1

[12] = system: southern crabgrass; assay: Test Example 4: herbicidal effect by soil treatment (Table 19, symbol F); type: in vivo, southern crabgrass (Digitaria ciliaris); settings: amount of applied herbicide 320 g/ha
Outline: as §2

[13] = system: persian speedwell; assay: Test Example 4: herbicidal effect by soil treatment (Table 19, symbol R); type: in vivo, Persian speedwell (Veronica persica); settings: amount of applied herbicide 320 g/ha
Outline: as §2

[14] = system: lambsquarters; assay: Test Example 4: herbicidal effect by soil treatment (Table 19, symbol O); type: in vivo, lambsquarters (Chenopodium album); settings: amount of applied herbicide 320 g/ha
Outline: as §2

[15] = system: Chinese sprangletop; assay: Test Example 3: herbicidal effect by foliage application, Wagner pot (Table 18, symbol D); type: in vivo, chinese sprangletop (Leptochloa chinensis); settings: 320 g/ha
Outline: as §3

[16] = system: wild oat; assay: Test Example 5: herbicidal effect by foliage application, plastic box (Table 20, symbol I); type: in vivo, wild oat (Avena fatua); settings: amount of applied herbicide 320 g/ha; foliage application after 14-day growth; evaluated three weeks after application
Outline: as §1

[17] = system: wild oat; assay: Test Example 4: herbicidal effect by soil treatment (Table 19, symbol I); type: in vivo, wild oat (Avena fatua); settings: amount of applied herbicide 320 g/ha
Outline: as §2

[18] = system: redroot pigweed; assay: Test Example 4: herbicidal effect by soil treatment (Table 19, symbol N); type: in vivo, redroot pigweed (Amaranthus retroflexus); settings: amount of applied herbicide 320 g/ha
Outline: as §2

[19] = system: green foxtail; assay: Test Example 5: herbicidal effect by foliage application, plastic box (Table 20, symbol G); type: in vivo, green foxtail (Setaria viridis); settings: amount of applied herbicide 320 g/ha; foliage application after 14-day growth; evaluated three weeks after application
Outline: as §1

[20] = system: green foxtail; assay: Test Example 4: herbicidal effect by soil treatment (Table 19, symbol G); type: in vivo, green foxtail (Setaria viridis); settings: amount of applied herbicide 320 g/ha
Outline: as §2

[21] = system: barnyard grass; assay: Test Example 5: herbicidal effect by foliage application, plastic box (Table 20, symbol H); type: in vivo, barnyard grass (Echinochloa crus-galli); settings: amount of applied herbicide 320 g/ha; foliage application after 14-day growth; evaluated three weeks after application
Outline: as §1

[22] = system: blackgrass; assay: Test Example 4: herbicidal effect by soil treatment (Table 19, symbol J); type: in vivo, blackgrass (Alopecurus myosuroides); settings: amount of applied herbicide 320 g/ha
Outline: as §2

[23] = system: persian speedwell; assay: Test Example 5: herbicidal effect by foliage application, plastic box (Table 20, symbol R); type: in vivo, Persian speedwell (Veronica persica); settings: amount of applied herbicide 320 g/ha; foliage application after 14-day growth; evaluated three weeks after application
Outline: as §1

[24] = system: rice flat sedge; assay: Test Example 3: herbicidal effect by foliage application, Wagner pot (Table 18, symbol E); type: in vivo, rice flat sedge (Cyperus iria); settings: 320 g/ha
Outline: as §3

[25] = system: redroot pigweed; assay: Test Example 5: herbicidal effect by foliage application, plastic box (Table 20, symbol N); type: in vivo, redroot pigweed (Amaranthus retroflexus); settings: amount of applied herbicide 320 g/ha; foliage application after 14-day growth; evaluated three weeks after application
Outline: as §1

[26] = system: blackgrass; assay: Test Example 5: herbicidal effect by foliage application, plastic box (Table 20, symbol J); type: in vivo, blackgrass (Alopecurus myosuroides); settings: amount of applied herbicide 320 g/ha; foliage application after 14-day growth; evaluated three weeks after application
Outline: as §1

[27] = system: velvetleaf; assay: Test Example 4: herbicidal effect by soil treatment (Table 19, symbol M); type: in vivo, velvetleaf (Abutilon theophrasti); settings: amount of applied herbicide 320 g/ha
Outline: as §2

Question: Which results are given for `CCCC(=O)Oc1c(C)nn(C)c(=O)c1-c1c(-c2ccccc2OC)sc2cc(Cl)c(Cl)cc12` [5-042]?
Answer: Herbicidal effect by foliage application, L: windgrass [1]: 0 (Herbicidal rate of 5% or less (almost no effect)); Herbicidal effect by foliage application, M: velvetleaf [2]: 5 (Herbicidal rate of 90% or more (almost completely withered)); Herbicidal effect by foliage application, F: southern crabgrass [3]: 0 (Herbicidal rate of 5% or less (almost no effect)); P: chickweed, herbicidal effect grade [4]: 3 (Herbicidal rate of 40% or more and less than 70%); Herbicidal effect by foliage application, P: chickweed [5]: 4 (Herbicidal rate of 70% or more and less than 90%); herbicidal effect on barnyard grass (H) [6]: 5 (Herbicidal rate of 90% or more (almost completely withered)); K: Italian ryegrass, herbicidal effect grade [7]: 0 (Herbicidal rate of 5% or less (almost no effect)); L: windgrass, herbicidal effect grade [8]: 0 (Herbicidal rate of 5% or less (almost no effect)); H: barnyard grass, herbicidal effect grade [9]: 0 (Herbicidal rate of 5% or less (almost no effect)); Herbicidal effect by foliage application, O: lambsquarters [10]: 5 (Herbicidal rate of 90% or more (almost completely withered)); Herbicidal effect by foliage application, K: Italian ryegrass [11]: 0 (Herbicidal rate of 5% or less (almost no effect)); F: southern crabgrass, herbicidal effect grade [12]: 0 (Herbicidal rate of 5% or less (almost no effect)); R: persian speedwell, herbicidal effect grade [13]: 0 (Herbicidal rate of 5% or less (almost no effect)); O: lambsquarters, herbicidal effect grade [14]: 1 (Herbicidal rate of 5% or more and less than 20%); herbicidal effect on Chinese sprangletop (D) [15]: 2 (Herbicidal rate of 20% or more and less than 40%); Herbicidal effect by foliage application, I: wild oat [16]: 0 (Herbicidal rate of 5% or less (almost no effect)); I: wild oat, herbicidal effect grade [17]: 0 (Herbicidal rate of 5% or less (almost no effect)); N: redroot pigweed, herbicidal effect grade [18]: 3 (Herbicidal rate of 40% or more and less than 70%); Herbicidal effect by foliage application, G: green foxtail [19]: 4 (Herbicidal rate of 70% or more and less than 90%); G: green foxtail, herbicidal effect grade [20]: 0 (Herbicidal rate of 5% or less (almost no effect)); Herbicidal effect by foliage application, H: barnyard grass [21]: 4 (Herbicidal rate of 70% or more and less than 90%); J: blackgrass, herbicidal effect grade [22]: 0 (Herbicidal rate of 5% or less (almost no effect)); Herbicidal effect by foliage application, R: persian speedwell [23]: 4 (Herbicidal rate of 70% or more and less than 90%); herbicidal effect on rice flat sedge (E) [24]: 4 (Herbicidal rate of 70% or more and less than 90%); Herbicidal effect by foliage application, N: redroot pigweed [25]: 4 (Herbicidal rate of 70% or more and less than 90%); Herbicidal effect by foliage application, J: blackgrass [26]: 0 (Herbicidal rate of 5% or less (almost no effect)); M: velvetleaf, herbicidal effect grade [27]: 0 (Herbicidal rate of 5% or less (almost no effect))
